Source: patent US20080171710A1, “The Redox/Fyn/c-Cbl Pathway” (priority 2007, published 2008)
Where two headings read alike, the source gives them in different places.

Key:
c-Cbl [1] = format: cell-based, rat
Method: (§1) For the co-immunoprecipitation assay, anti-c-Cbl monoclonal antibody (BD PharMingen) or anti-PDGFRα polyclonal antibody (Santa Cruz Biotechnology) was added to the pre-cleared cell lysates (250 μg of total protein), and the mixtures were gently rocked for 2 h at 4° C. A total of 30 μl of protein A/G agarose was then added to the mixture followed by rotating at 4° C. overnight. The protein A/G agarose was then spun down and washed thoroughly three times. The precipitates were resolved on an 8% SDS-PAGE gel and then were subjected to Western blot analysis using an anti-p-Tyr (for c-Cbl phosphorylation assay) or ubiquitin (for PDGFR ubiquitylation assay) antibody (Santa Cruz Biotechnology).

Fyn [2] = target: T1, Fyn (Rattus norvegicus, UniProt Q62844); format: cell-based
T1 construct: 250 μg of total cell lysates were immunoprecipitated with anti-Fyn antibody; endogenous in cells; host or cells: primary rat O-2A/OPCs
T1 sequence (Q62844 whole entry): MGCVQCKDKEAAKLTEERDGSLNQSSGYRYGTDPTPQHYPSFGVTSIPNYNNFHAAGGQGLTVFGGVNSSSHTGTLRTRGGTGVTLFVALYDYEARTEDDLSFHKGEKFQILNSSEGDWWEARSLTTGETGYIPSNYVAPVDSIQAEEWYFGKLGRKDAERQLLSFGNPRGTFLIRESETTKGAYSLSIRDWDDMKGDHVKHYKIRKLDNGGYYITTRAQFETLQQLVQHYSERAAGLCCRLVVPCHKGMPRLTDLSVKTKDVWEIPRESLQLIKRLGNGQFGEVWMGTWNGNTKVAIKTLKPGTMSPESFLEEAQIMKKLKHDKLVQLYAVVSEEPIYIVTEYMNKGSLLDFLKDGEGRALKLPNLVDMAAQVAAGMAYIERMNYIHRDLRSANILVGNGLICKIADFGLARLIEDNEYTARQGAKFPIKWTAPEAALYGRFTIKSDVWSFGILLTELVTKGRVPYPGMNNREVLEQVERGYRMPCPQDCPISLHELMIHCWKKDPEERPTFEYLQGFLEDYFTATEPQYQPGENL
Method: Fyn kinase activity was quantified using the Universal Tyrosine Kinase Assay Kit (Takara, Madison, Wis., United States). O-2A/OPCs exposed to different treatments were solubilized with an equal volume of the extraction buffer provided with the kit for 15 min, and the resulting lysates were centrifuged at 13,000×g for 15 min at 4° C.; 250 μg of total cell lysates were immunoprecipitated with anti-Fyn antibody (Santa Cruz Biotechnology). Following immunoprecipitation, Fyn immune complexes were washed four times with extraction buffer, and then Fyn kinase activities of each sample were assayed using the kit according to the manufacturer's instructions.

PDGFRα [3] = test: PDGFRα phosphorylation (Western blot, anti-PDGFRα(pY742)); format: cell-based, rat
Source text: The cells were then collected and lysed for Western blotting. […] Cells were lysed for Western blot analysis using anti-PDGFRα(pY742) antibody. The membranes were de-probed and then re-probed with antibody against total PDGFRα and anti-β-tubulin antibody. […]
(§2) Anti-phosphorylated Erk monoclonal, anti-Erk monoclonal, anti-TrkC polyclonal anti-Fyn polyclonal, anti-EGFR polyclonal, anti-c-Met polyclonal, anti-phospho-tyrosine monoclonal, and anti-PDGFRα polyclonal antibodies were obtained from Santa Cruz Biotechnology (Santa Cruz, Calif., United States). Anti-c-Cbl monoclonal antibody was obtained from BD PharMingen (San Diego, Calif., United States). Anti-phosphorylated Akt monoclonal and anti-Akt polyclonal antibodies were obtained from Cell Signaling Technology (Beverly, Mass., United States). Anti-phosphorylated PDGPRα polyclonal antibody was obtained from Biosource (Carlsbad, Calif., United States). The cell culture samples were collected and lysed in RAPI buffer, whereas dissected tissue samples were sonicated in RAPI buffer. Samples were resolved on SDS-PAGE gels and transferred to PVDF membranes (PerkinElmer Life Science. Wellesley, Mass., United States), After being blocked in 5% skim milk in PBS containing 0.1% Tween 20, membranes were incubated with a primary antibody, followed by incubation with an HRP-conjugated secondary antibody (Santa Cruz Biotechnology). Membranes were visualized using Western Blotting Luminol Reagent (Santa Cruz Biotechnology). All analyses of signaling pathway components were conducted in the presence of ligand for the receptor pathway under analysis (either PDGF-AA for PDGFRα, NT-3 or TrkC, HGF for c-Met, or EGF for EGFR).

PDGFRα [4] = format: cell-based, rat; conditions: for effect on MeHg-induced reductions in levels of PDGFRα: together with MeHg; for levels of PDGFRα: tamoxifen (100 nM; time course 4, 12, 24 hours)
PDGFRα [5] = test: PDGFR ubiquitylation (immunoprecipitation assay); format: cell-based, rat; conditions: co-exposure with MeHg
Method: as §1

Erk1/2 = format: cell-based, rat
Method: Cells were deprived of PDGF-AA for 5 h before re-exposure to PDGF-AA (10 ng/ml) for 1 h for Western blot or 6 h for luciferase assays of pathway activation. Transient transfection was performed using Fugene6 (Roche, Basel, Switzerland ) transfection solution according to the manufacturer's protocol. For the luciferase assay, cells seeded in 12-well plates were transfected with a reporter plasmid SRE-Luc(firefly) or NF-κB-Luc(firefly) (BD-Clontech, Palo Alto, Calif., United States) and an internal control plasmid pRLSV40-LUC. Analyses of luciferase activity were performed according to the protocol of the Dual Luciferase Assay System (Promega, Madison, Wis., United States), which uses an internal control of Renilla luciferase for quantification, and relative light units were measured using a luminometer.
as §2

O-2A/OPCs [6] = test: Intracellular ROS / redox state measurement; format: cell-based, rat; conditions: 1 μM Pb or 5 μM paraquat; dyes dihydro-chloromethyl-rosamine or dihydro-calcein-AM
Method: Cells were plated in 96-well microplates and grown to about 60% continence. […] Cells were then washed once with HBSS and growth medium to remove free probe. Then, fresh growth medium was added and a baseline fluorescence reading was taken prior to treatment. For NAC pre-treatment. […] Fluorescence was measured in a Wallac 1420 Victor2 multilabel counter (PerkinElmer) using excitation and emission wavelengths of 485 nm and 535 nm, respectively, at different time courses as indicated in the figures. Results are presented as the value change from baseline by the formula (Ftexp−Ftbase)/Ftbase normalized with the control group, where Ftexp=fluorescence at any given time during the experiment in a give well and Ftbase=baseline fluorescence of the same well.

O-2A/OPCs [7] = test: Cell death of O-2A/OPCs on exposure; format: cell-based, rat; conditions: MeHg at lower concentrations (not above 50 nM); 1 μM Pb; 5 μM paraquat
Method: To generate sufficient numbers of cells for biochemical analysis, cells, were expanded through one to two passages in PDGF+FGF-2 before replating in the presence of PDGF alone. When cells achieved approximately 50% confluence, MeHg, Pb, or paraquat was added to their medium at concentrations indicated. Doses for the toxicants were chosen on the basis of dose-response curves to identify sub-lethal exposure levels, as a reflection of blood and brain toxicant levels of these compounds and, where applicable, on the basis of previous reports. All toxicant concentrations examined were confirmed to cause death of less than 5% of cells over the time course of the experiment.

TrkC = format: cell-based, rat
Source text: as §2

c-Met = format: cell-based, rat
Source text: as §2

EGFR = format: cell-based, rat
Source text: as §2

O-2A/OPCs [8] = test: In vitro BrdU incorporation assay; format: cell-based, rat; conditions: TMX 10 nM, 100 nM and 1 μM, 2 days
Method: Cell proliferation was assessed by bromodeoxyuridine (BrdU) incorporation and by using the mouse anti-BrdU mAb IgGl (1:100; Sigma) to label dividing cells. Stained cells on cover slips were rinsed two times in 1×PBS, counterstained with 4′6-diamidino-2-phenylindole (DAPI; Molecular Probes, Eugene, Oreg., United States) and mounted on glass slides with Fluoromount (Molecular Probes). Staining against surface proteins was performed on cultures of living cells or on cells fixed with 2% paraformaldehyde. Staining with intracellular antibodies was performed by permeabilizing cells with ice-cold methanol for 4 min or by using 0.5% Triton for 15 mm on 2% parafomaldhyde-fixed cells. Antibody binding was detected with appropriate fluorescent dye-conjugated secondary antibodies at 10 μg/ml (Southern Biotech, Birmingham, Ala., United States) or Alexa Fluor-coupled antibodies at a concentration of 1 μg/ml (Molecular Probes), applied for 20 min. Anti-BrdU monoclonal antibody was obtained from Sigma.

MDA-MB-231 cell = MDA-MB-231 cell division by BrdU incorporation; format: cell-based; conditions: 20 μM tamoxifen, 48 hours
Method: It has been reported that c-Cbl induced down-regulation of EGFR is disabled in cancer cells (Hirsch DS, Shen. Y, Wu WJ, (2006) Cancer Res. Apr 1;66(7):3523-30). Thus, growth and motility inhibition of breast cancer cells by EGFR degradation is correlated with inaetivation of Cdc42. […] Cells were cultured in phenol red-free growth media and exposed to TMX (0, 1 μM, 10 μM, 20 μM and 50 μM) for 48 hours, with or without 1 mM NAC. In FIG. 22C. MDA-MB-231 cell division was analyzed by BrdU incorporation analysis. […] Percentage of Brdu+ cells from DAPI+ cells was determined in each sample.

c-Cbl [9] = test: c-Cbl protein level after RNAi (Western blot); format: cell-based, rat; conditions: expression of RNAi construct
Source text: (§3) Anti-phosphorylated Erk monoclonal, anti-Erk monoclonal, anti-TrkC polyclonal anti-Fyn polyclonal, anti-EGFR polyclonal, anti-c-Met polyclonal, anti-phospho-tyrosine monoclonal, and anti-PDGFRα polyclonal antibodies were obtained from Santa Cruz Biotechnology (Santa Cruz, Calif., United States). Anti-c-Cbl monoclonal antibody was obtained from BD PharMingen (San Diego, Calif., United States). Anti-phosphorylated Akt monoclonal and anti-Akt polyclonal antibodies were obtained from Cell Signaling Technology (Beverly, Mass., United States). Anti-phosphorylated PDGPRα polyclonal antibody was obtained from Biosource (Carlsbad, Calif., United States). The cell culture samples were collected and lysed in RAPI buffer, whereas dissected tissue samples were sonicated in RAPI buffer. […]
(§4) siRNA target sites were selected by scanning the cDNA sequence for AA dinucleotides via siRNA target finder (Ambion, Austin, Tex., United States). Those 19-nucleotide segments that start with G immediately downstream of AA were recorded and then analyzed by BLAST search to eliminate any sequences with significant similarity to other genes. […]

Fyn [10] = test: Fyn protein level after RNAi (Western blot); format: cell-based, rat; conditions: expression of RNAi construct
Source text: as §3, §4

[11] = 30 nM MeHg, 1 μM Pb, 5 μM paraquat

For `Cl.N` [NH4Cl, ammonium chloride], the “effect on MeHg-induced c-Cbl phosphorylation” value (c-Cbl [1]; added 1 h before MeHg) was “lack of effect”, the “effect on Aβ-induced increase in phosphorylated c-Cbl” value (c-Cbl [1]; co-exposure with Aβ) was “not blocked” and the “effect on MeHg-induced Fyn activation” value (Fyn [2]; added 1 h before MeHg) was “lack of effect”. For the same molecule, the “effect on MeHg-induced suppression of PDGFRα phosphorylation” value (PDGFRα [3]; co-exposure with MeHg) was “protected”, the “effect on Aβ-induced reduction in PDGFRα levels” value (PDGFRα [4]; co-exposure with Aβ) was “blocked” and the “effect on MeHg-induced reductions in levels of PDGFRα” value (from here on “effect on MeHg-induced reductions”) (PDGFRα [4]) was “blocked”. For the same molecule, the “levels of ubiquitylated PDGFRα in MeHg-treated cells” value (PDGFRα [5]) was “increased levels of ubiquityiated receptor”, the “effect on Aβ(1-42) suppression of PDGF-mediated Erk1/2 phosphorylation” value (Erk1/2; co-exposure with Aβ(1-42)) was “not” and the “effect on MeHg-associated suppression of Erk1/2 phosphorylation” value (Erk1/2; co-treatment with MeHg) was “blocked”.

`C[n+]1ccc(-c2cc[n+](C)cc2)cc1` [paraquat] was tested, and the “c-Cbl phosphorylation after toxicant exposure” value (c-Cbl [1]; [11]) was “increased phosphorylation of c-Cbl”, the “Fyn activation after toxicant exposure” value (Fyn [2]; [11]) was “activation of Fyn” and the “phosphorylation of PDGFRα after toxicant exposure” value (PDGFRα [3]; [11]) was “reduced”. The “cells more oxidized (intracellular redox state)” value (O-2A/OPCs [6]) was “approximately 20%”, the “cell death at the concentrations used” value (O-2A/OPCs [7]) was “did not cause cell death” and the “total levels of PDGFRα after toxicant exposure” value (PDGFRα [4]; MeHg 30 nM, 1 μM Pb, 5 μM paraquat) was “reduced”. For the same molecule, the “PDGF-induced Erk1/2 phosphorylation after toxicant exposure” value (Erk1/2; 30 nM MeHg 24 h, 1 μM Pb, 5 μM paraquat) was “reduced levels of Erk1/2 phosphorylation”, the “levels of TrkC after toxicant exposure” value (TrkC; MeHg, Pb or paraquat) was “neither Pb or paraquat caused a reduction” and the “levels of c-Met after toxicant exposure” value (c-Met; MeHg, Pb or paraquat) was “also reduced”. For the same molecule, the “levels of EGFR after toxicant exposure” value (EGFR; MeHg, Pb or paraquat) was “also reduced”.

For `CC/C(=C(\c1ccccc1)c1ccc(OCCN(C)C)cc1)c1ccccc1` [tamoxifen], the c-Cbl activation (c-Cbl [1]; 100 nM tamoxifen) was “activates”, the O-2A/OPC division (O-2A/OPCs [8]) was “Suppression” and the “reduction in cell division” value (MDA-MB-231 cell) was about 10%. For the same molecule, the “levels of phosphorylated PDGFRα” value (PDGFRα [3]; TMX exposure 4, 12, 24 hours) was “parallel reduction over time”, the “levels of PDGFRα” value (PDGFRα [4]) was “causes reductions” and the “levels of PDGFRα” value (PDGFRα [4]; listed as TMX) was “parallel reduction over time”. For the same molecule, the “levels of Trk (non-c-Cbl target)” value (TrkC; TMX treatment) was “no differences”, the “levels of c-Met” value (c-Met; TMX exposure) was “decreased” and the “levels of EGFR” value (EGFR; TMX exposure) was “decreased”.

B1: c-Cbl RNAi: c-Cbl siRNA construct, SEQ ID NO: 3 and 4 (nucleic acid)
chain 1: GTGCATCCCATCAGTTCTGTTCAAGAGACAGAACTGATGGGATGCACTTTTTT
chain 2: AATTAAAAAAGTGCATCCCATCAGTTCTGTCTCTTGAACAGAACTGATGGGATGCACGGCC
modifications: expressed or natural sequence
With B1 the “levels of c-Cbl protein” value (c-Cbl [9]) was “caused a reduction”, the “effect on MeHg-induced reductions” value (PDGFRα [4]) was “protected” and the “effect on Pb- and paraquat-induced reductions in levels of PDGFRα” value (PDGFRα [4]; together with Pb (1 μM) or paraquat (5 μM)) was “prevented”.

B2: Fyn-Scr-RNAi: scrambled negative control for Fyn RNAi, SEQ ID NO: 5 and 6 (nucleic acid)
chain 1: CCCGGGTTTCAATATATTTCTCAAGAGAAAATATATTGAAACCCGGGTTTTTT
chain 2: AATTAAAAAACCCGGGTTTCAATATATTTTCTCTTGAGAAATATATTGAAACCCGGGGGCC
For B2, the “levels of Fyn protein” value (Fyn [10]) was “had no effect” and the “effect on MeHg-induced reductions” value (PDGFRα [4]) was “not”.
